Reference: ChEMBL document CHEMBL1201862, “PubChem BioAssay data set” (2004)
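Interpolation was linear, between the two tested concentrations surrounding the appropriate level; five concentrations were tested over 48 hours in 96-well plates. GI50: concentration for 50% inhibition of growth.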 The source made the active and inactive calls. No stated cut-off is given here; in the data, active = GI50 up to about 1.1 µM and inactive = higher.

Tests used:
Assay in all cases: DTP human tumour cell line panel, 48 h
A549 = test system: A549
CAKI-1 = test system: CAKI-1
CCRF-CEM = test system: CCRF-CEM
EKVX = test system: EKVX
HOP-62 = test system: HOP-62
KM12 = test system: KM12
LOX IMVI = test system: LOX IMVI
M14 = test system: M14
NCI-H522 = test system: NCI-H522
NCI/ADR-RES = test system: NCI/ADR-RES
OVCAR-8 = test system: OVCAR-8
SK-MEL-5 = test system: SK-MEL-5
SNB-19 = test system: SNB-19
SR = test system: SR
SW-620 = test system: SW-620
UO-31 = test system: UO-31
U-251 = test system: U-251
RXF 393 = test system: RXF 393
SNB-75 = test system: SNB-75

Structure (SMILES)	GI50 (A549)	GI50 (CAKI-1)	GI50 (CCRF-CEM)	GI50 (EKVX)	GI50 (HOP-62)	GI50 (KM12)	GI50 (LOX IMVI)	GI50 (M14)	GI50 (NCI-H522)	GI50 (NCI/ADR-RES)	GI50 (OVCAR-8)	GI50 (SK-MEL-5)	GI50 (SNB-19)	GI50 (SR)	GI50 (SW-620)	GI50 (UO-31)	GI50 (U-251)	GI50 (RXF 393)	GI50 (SNB-75)
COc1ccc2cc1Oc1ccc(cc1)CC1c3c(cc(OC)c4c3Oc3cc5c(cc3O4)CCNC5C2)CCN1C (configuration not stated)	2.2 µM (inactive)	2.87 µM (inactive)	1.24 µM (inactive)	1.94 µM (inactive)	2.2 µM (inactive)	1.85 µM (inactive)	1.69 µM (inactive)	2.58 µM (inactive)	1.7 µM (inactive)	1.92 µM (inactive)	1.77 µM (inactive)	2.06 µM (inactive)	2 µM (inactive)	0.698 µM (active)	1.77 µM (inactive)	15.6 µM (inactive)			
O=C1OC[C@@H]2Cc3cc4c(cc3[C@H](c3ccc5c(c3)OCO5)[C@@H]12)OCO4	> 25 µM (inactive)	> 25 µM (inactive)	> 25 µM (inactive)	> 25 µM (inactive)	24.7 µM (inactive)	> 25 µM (inactive)	> 25 µM (inactive)	> 25 µM (inactive)		9.33 µM (inactive)	> 25 µM (inactive)	16 µM (inactive)	> 25 µM (inactive)	24 µM (inactive)		15.6 µM (inactive)	> 25 µM (inactive)		
[O-][S+]1Nc2c(Cl)cc(Cl)c(Cl)c2S1 (configuration not stated)	> 100 µM (inactive)	41.2 µM (inactive)	39.3 µM (inactive)	> 100 µM (inactive)	> 100 µM (inactive)	> 100 µM (inactive)	78.9 µM (inactive)	> 100 µM (inactive)	78.9 µM (inactive)		> 100 µM (inactive)	70.6 µM (inactive)	> 100 µM (inactive)	43.1 µM (inactive)	5.62 µM (inactive)	86.9 µM (inactive)	38.6 µM (inactive)	> 100 µM (inactive)	22.7 µM (inactive)
CC(Nc1ccc(S(=O)(=O)NC(=N)N)cc1)c1c2ccccc2nc2ccccc12 (configuration not stated)	31.4 µM (inactive)	19 µM (inactive)	19.3 µM (inactive)	25.5 µM (inactive)		34.8 µM (inactive)	28 µM (inactive)	41 µM (inactive)	15.1 µM (inactive)		23.9 µM (inactive)		40 µM (inactive)	14.2 µM (inactive)	41.3 µM (inactive)	19 µM (inactive)	31.6 µM (inactive)	26.9 µM (inactive)	26.8 µM (inactive)
O=c1[nH]c2cc([N+](=O)[O-])ccc2nc1/C(=N\NO)C(O)c1ccc([N+](=O)[O-])cc1 (configuration not stated)	> 100 µM (inactive)	50.2 µM (inactive)	66.2 µM (inactive)		> 100 µM (inactive)	65 µM (inactive)	85.1 µM (inactive)	> 100 µM (inactive)	44.7 µM (inactive)		> 100 µM (inactive)	> 100 µM (inactive)	> 100 µM (inactive)	> 100 µM (inactive)	> 100 µM (inactive)	> 100 µM (inactive)	> 100 µM (inactive)	> 100 µM (inactive)	> 100 µM (inactive)
CC12CCC3(OCCO3)C(OC(=O)c3ccccc3)=C1CCC21OCCO1 (configuration not stated)	> 100 µM (inactive)	> 100 µM (inactive)	> 100 µM (inactive)	> 100 µM (inactive)	> 100 µM (inactive)	> 100 µM (inactive)	> 100 µM (inactive)	> 100 µM (inactive)	> 100 µM (inactive)		> 100 µM (inactive)	> 100 µM (inactive)	> 100 µM (inactive)	> 100 µM (inactive)	> 100 µM (inactive)	> 100 µM (inactive)	> 100 µM (inactive)	> 100 µM (inactive)	> 100 µM (inactive)
CC(=O)N1C(C(=O)NC2CCCCC2)CSC1c1ccccc1 (configuration not stated)	> 100 µM (inactive)	> 100 µM (inactive)	> 100 µM (inactive)	> 100 µM (inactive)	> 100 µM (inactive)	> 100 µM (inactive)	> 100 µM (inactive)	> 100 µM (inactive)	> 100 µM (inactive)	> 100 µM (inactive)	> 100 µM (inactive)	> 100 µM (inactive)	> 100 µM (inactive)	> 100 µM (inactive)	> 100 µM (inactive)	> 100 µM (inactive)	> 100 µM (inactive)		> 100 µM (inactive)
NC(=O)OCC(COc1ccc(Cl)cc1)OC(=O)c1ccccc1Cl (configuration not stated)	27.8 µM (inactive)	26.5 µM (inactive)	22.3 µM (inactive)	25.4 µM (inactive)	20.9 µM (inactive)	21.6 µM (inactive)	13.8 µM (inactive)	18.7 µM (inactive)	16.9 µM (inactive)		23.4 µM (inactive)	19.1 µM (inactive)	28.1 µM (inactive)	25.6 µM (inactive)	19 µM (inactive)	22.3 µM (inactive)	14.1 µM (inactive)	12.6 µM (inactive)	41.7 µM (inactive)
CCC(CC)n1cc(C(=O)NC(=O)NCCCCCOC(=O)CCCCCCCCCCC(=O)OCCCCCNC(=O)NC(=O)c2cn(C(CC)CC)c(=O)[nH]c2=O)c(=O)[nH]c1=O	> 100 µM (inactive)	> 100 µM (inactive)	> 100 µM (inactive)	> 100 µM (inactive)	> 100 µM (inactive)	> 100 µM (inactive)	> 100 µM (inactive)	> 100 µM (inactive)	> 100 µM (inactive)		64.3 µM (inactive)	> 100 µM (inactive)	27.7 µM (inactive)	> 100 µM (inactive)	> 100 µM (inactive)	> 100 µM (inactive)	88.3 µM (inactive)	29.1 µM (inactive)	22.8 µM (inactive)
O=S(=O)(O)c1cc(S(=O)(=O)O)c2cc(/N=N/c3ccc(/N=N/c4ccc(/C=C/c5ccc(/N=[N+](/[O-])c6ccc(/C=C/c7ccc(/N=N/c8ccc(/N=N/c9ccc%10cc(S(=O)(=O)O)cc(S(=O)(=O)O)c%10c9)cc8)cc7S(=O)(=O)O)c(S(=O)(=O)O)c6)cc5S(=O)(=O)O)c(S(=O)(=O)O)c4)cc3)ccc2c1	> 65.3 µM (inactive)		> 100 µM (inactive)	82.6 µM (inactive)	> 100 µM (inactive)	26.7 µM (inactive)	> 59.7 µM (inactive)		> 55.8 µM (inactive)	> 100 µM (inactive)	> 78.7 µM (inactive)	> 66.7 µM (inactive)	25.9 µM (inactive)		> 10 µM (inactive)	70.8 µM (inactive)	> 55.8 µM (inactive)	> 50.9 µM (inactive)	35.8 µM (inactive)
CC(C)(C)[C@H]1CC[C@@](O)(c2ccccc2)CC1.CC(C)(C)[C@H]1CC[C@](O)(c2ccccc2)CC1	26 µM (inactive)		26.5 µM (inactive)	23.1 µM (inactive)	26.7 µM (inactive)	22.8 µM (inactive)	15.3 µM (inactive)	18.2 µM (inactive)	23.4 µM (inactive)		18.7 µM (inactive)	14.8 µM (inactive)	25.2 µM (inactive)	15.2 µM (inactive)	3.74 µM (inactive)	31.5 µM (inactive)	16.3 µM (inactive)	18.6 µM (inactive)	24.3 µM (inactive)
